According to US20030021810A1 (priority 2001, published 2003):

Tests used:
Format in all cases: cell-based
glioma cells [1] = test: in situ zymography of cell surface gelatinolytic activity; conditions: 50 μM, 30 minutes at 37° C.
Procedure: FITC-labeled DQ gelatin which is intramolecularly quenched (Molecular Probes, Eugene, Oreg.) was used as a substrate for degradation by gelatinases as reported earlier (Oh et al., 1999). Proteolysis by gelatinases yields cleaved FITC-gelatin peptides and the localization of this fluorescence indicates the sites of net gelatinolytic activity. Briefly, glioma cells were plated on 12 mm coverslips. […] Untreated cells served as negative control for this experiment. Cells were then washed with PBS and then incubated with zymography reaction buffer (0.05 M Tris-HCl, 0.15 M NaCl, 5 mM CaCl2 and 0.2 mM NaN3, pH 7.6- the high concentration of azide will prevent the gelatin from phagocytosing and thus allow cell surface gelatinolytic activity to occur) containing 100 μg/ml DQ gelatin at 37° C. overnight. At the end of the incubation period, without fixation or further washes, gelatinolytic activity of the MMP-s was localized and photographed by fluorescence microscopy and the images were acquired by Spot digital camera.

glioma cells [2] = test: release of mature MMP-2 into conditioned media (Western blot, gelatinase activity assay); conditions: 50 μM
Procedure: For these experiments, glioma cells were plated in 96 well (5000 cells/well) or 24 well plates (2.5×10^4/well) in serum containing medium (SCM). After overnight incubation, cell cultures were washed and incubated with serum free medium (SFM) for 24 hrs. Cells were then treated with His-Cltx at concentrations ranging from 30 nM to 3000 nM for 10 min or 30 min at 37° C. Cells were washed and replenished with serum free medium and at post-incubation periods of 10 min, 30 min and 24 hrs, conditioned media was collected from all samples and analyzed for matrix-metalloproteinase-2 activity by gelatinase activity assay as well as Western blots analysis for detection of matrix-metalloproteinase-2 protein. Cells treated with irrelevant His-protein were used as a negative control (untreated cells). […] Conditioned media from 10 wells were pooled for gelatinase activity assay as well as western blot analysis and data shown herein represents an average of three experiments.

glioma cells [3] = test: matrigel invasion assay
Source text: Matrigel matrix is a reconstituted basement membrane isolated from Englebreth-Holm-Swarm (EHS) mouse sarcoma, a tumor rich in extracellular matrix proteins. Matrigel-invasion chamber consisted of falcon cell culture inserts of 8 μm pore-size with a uniform layer of matrigel matrix that occludes the membrane pores. […] Cells which remained in the upper chamber were scrubbed off the inserts and the invaded cells were fixed and stained with crystal violet.

Compound: c1cnc2c(c1)ccc1cccnc12 [1-10 phenanthroline]
- inhibition of cell surface gelatinolytic activity versus 300 nM chlorotoxin (glioma cells [1]): comparable
- release of MMP-2 into the medium (glioma cells [2]): blocked the release
- inhibition of invasion compared with chlorotoxin (glioma cells [3]; glioma cells): essentially identical inhibition
- change of inhibition of glioma invasion (glioma cells [3]; treatment with Filipin): only minimally affected
